Assay results reported in ChEMBL document CHEMBL1914447, “Novel orally active antimalarial thiazoles” (J Med Chem, 2011).
≈ marks a conversion by molar mass, not a printed value.

What was measured:
[1] = Volume of distribution at steady state in Sprague-Dawley rat at 4.5 mg/kg, iv; assay type: ADME, organism-based; set-up: dose 4.5 mg/kg, route intravenous; details: in vivo, read-out: Vdss
[2] = biological target: Voltage-gated inwardly rectifying potassium channel KCNH2 (Homo sapiens, UniProt Q12809); test: Inhibition of human ERG expressed in Chinese hamster CHL cells by perforated patch clamp assay; assay type: cell-based
Plasmodium berghei [3] = test: Antimalarial activity against GFP-transfected Plasmodium berghei ANKA infected in NMRI mouse assessed as mean survival time at 50 mg/kg, po administered as quadruple dose regimen; assay type: functional
CYP3A4/5 [4] = biological target: T1, CYP3A4/5 (Homo sapiens, UniProt P08684+P20815); test: Inhibition of CYP3A4/5-mediated midazolam 1'-hydroxylation in human liver microsomes by LCMS analysis; assay type: ADME, Microsome; details: probe midazolam (1'-hydroxylation)
[5] = Total clearance in Sprague-Dawley rat blood at 4.5 mg/kg, iv; assay type: ADME, organism-based; set-up: dose 4.5 mg/kg, route intravenous; details: whole blood
Plasmodium berghei [6] = test: Antimalarial activity against GFP-transfected Plasmodium berghei ANKA infected in NMRI mouse assessed as reduction in parasitemia at 10 mg/kg, po administered as single dose after 72 hrs by flow cytometry; assay type: functional; set-up: scale not given: the % may be the effect or the level left
Cytochrome P450 1A2 = biological target: T2, Cytochrome P450 1A2 (Homo sapiens, UniProt P05177); test: Inhibition of CYP1A2-mediated phencetin o-de-ethylation in human liver microsomes by LCMS analysis; assay type: ADME, Microsome
T2 sequence (P05177 whole entry): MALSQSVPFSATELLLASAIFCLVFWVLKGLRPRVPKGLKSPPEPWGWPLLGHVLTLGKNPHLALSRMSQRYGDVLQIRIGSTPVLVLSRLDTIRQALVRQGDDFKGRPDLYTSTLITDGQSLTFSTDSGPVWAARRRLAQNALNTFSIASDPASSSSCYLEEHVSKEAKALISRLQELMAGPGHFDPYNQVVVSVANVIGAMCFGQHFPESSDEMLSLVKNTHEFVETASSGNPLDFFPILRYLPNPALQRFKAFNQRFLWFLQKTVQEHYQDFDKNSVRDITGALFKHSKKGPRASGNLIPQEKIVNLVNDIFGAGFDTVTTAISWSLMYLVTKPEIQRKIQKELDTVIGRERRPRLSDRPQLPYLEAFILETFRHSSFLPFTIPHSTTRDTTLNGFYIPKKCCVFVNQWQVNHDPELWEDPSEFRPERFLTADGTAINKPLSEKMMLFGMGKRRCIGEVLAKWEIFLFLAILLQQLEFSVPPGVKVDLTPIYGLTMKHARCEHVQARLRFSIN

Liver microsomes [7] = test: Metabolic stability in human liver microsomes at 1 uM by LC-MS analysis; assay type: ADME, Microsome
[8] = Equilibrium solubility of the compound by nephelometry at pH 2.0; assay type: physicochemical; details: buffer
Plasmodium berghei [9] = test: Antimalarial activity against GFP-transfected Plasmodium berghei ANKA infected in NMRI mouse assessed as reduction in parasitemia at 30 mg/kg, po administered as single dose after 72 hrs by flow cytometry; assay type: functional; set-up: scale not given: the % may be the effect or the level left
[10] = Plasma protein binding in mouse at 200 ng/mL; assay type: ADME, cell-free; details: read-out: PPB (converted)
[11] = Tmax in Sprague-Dawley rat at 21.8 mg/kg, po by LCMS analysis; assay type: ADME, organism-based; set-up: dose 21.8 mg/kg, route oral; details: in vivo
Plasmodium berghei [12] = test: Antimalarial activity against GFP-transfected Plasmodium berghei ANKA infected in NMRI mouse assessed as reduction in parasitemia at 200 mg/kg, po administered as single dose after 72 hrs by flow cytometry; assay type: functional; set-up: scale not given: the % may be the effect or the level left
Liver microsomes [13] = test: Metabolic stability in rat liver microsomes at 1 uM by LC-MS analysis; assay type: ADME, Microsome
L6 = test: Cytotoxicity against rat L6 cells assessed after 72 hrs by alamar blue staining; assay type: cell-based; details: L6, 72 h
Plasmodium berghei [14] = test: Antimalarial activity against GFP-transfected Plasmodium berghei ANKA infected in po dosed NMRI mouse assessed as reduction in parasitemia administered as single dose after 72 hrs by flow cytometry; assay type: functional
Plasmodium falciparum [15] = test: microbe, parasite or virus in culture; details: NF54
Plasmodium berghei [16] = test: Antimalarial activity against GFP-transfected Plasmodium berghei ANKA infected in NMRI mouse assessed as mean survival time at 200 mg/kg, po administered as single dose after 72 hrs; assay type: functional
[17] = Oral bioavailability in Sprague-Dawley rat at 21.8 mg/kg; assay type: ADME, organism-based; details: in vivo
[18] = AUC (0 to infinity) in Sprague-Dawley rat plasma at 21.8 mg/kg, po by LCMS analysis; assay type: ADME, organism-based; set-up: time infinity, dose 21.8 mg/kg, route oral
[19] = Cmax in Sprague-Dawley rat plasma at 21.8 mg/kg, po by LCMS analysis; assay type: ADME, organism-based; set-up: dose 21.8 mg/kg, route oral
[20] = Equilibrium solubility of the compound by nephelometry at pH 6.5; assay type: physicochemical; details: buffer
Plasmodium berghei [21] = test: Antimalarial activity against GFP-transfected Plasmodium berghei ANKA infected in NMRI mouse assessed as mean survival time at 100 mg/kg, po administered as single dose; assay type: functional
[22] = Apparent half life in Sprague-Dawley rat at 21.8 […], po; assay type: ADME, organism-based; details: in vivo, read-out: t1/2(app) (converted)
Liver = test: Metabolic stability in mouse liver microsomes at 1 uM by LC-MS analysis; assay type: ADME, Microsome
[23] = Ratio of drug level in blood to plasma of Sprague-Dawley rat at 4.5 mg/kg, iv; assay type: ADME, organism-based; set-up: dose 4.5 mg/kg, route intravenous; details: whole blood and plasma
Cytochrome P450 2C19 = Cytochrome P450 2C19 (Homo sapiens, UniProt P33261); test: Inhibition of CYP2C19-mediated (S)-mephenytoin 4'-hydroxylation in human liver microsomes by LCMS analysis; assay type: ADME, Microsome
CYP3A4/5 [24] = biological target: T1, CYP3A4/5; test: Inhibition of CYP3A4/5-mediated testosterone 6beta-hydroxylation in human liver microsomes by LCMS analysis; assay type: ADME, Microsome; details: probe testosterone (6beta-hydroxylation)
Cytochrome P450 2C9 = Cytochrome P450 2C9 (Homo sapiens, UniProt P11712); test: Inhibition of CYP2C9-mediated Tolbutamide methlyhydroxylation in human liver microsomes by LCMS analysis; assay type: ADME, Microsome
Cytochrome P450 2D6 = Cytochrome P450 2D6 (Homo sapiens, UniProt P10635); test: Inhibition of CYP2D6-mediated dextromethorphan O-demethylation in human liver microsomes by LCMS analysis; assay type: ADME, Microsome
[25] = Lipophilicity, log D of the compound by gradient HPLC at pH 3.0; assay type: physicochemical; details: buffer
Plasmodium berghei [26] = test: Antimalarial activity against GFP-transfected Plasmodium berghei ANKA infected in NMRI mouse assessed as mean survival time at 10 mg/kg, po administered as single dose; assay type: functional
[27] = Lipophilicity, log D of the compound by gradient HPLC at pH 7.4; assay type: physicochemical; details: buffer
[28] = Apparent half life in Sprague-Dawley rat at 4.5 […], iv; assay type: ADME, organism-based; details: in vivo, read-out: t1/2(app) (converted)
[29] = Total clearance in Sprague-Dawley rat plasma at 4.5 mg/kg, iv; assay type: ADME, organism-based; set-up: dose 4.5 mg/kg, route intravenous
[30] = AUC (0 to infinity) in Sprague-Dawley rat plasma at 4.5 mg/kg, iv by LCMS analysis; assay type: ADME, organism-based; set-up: time infinity, dose 4.5 mg/kg, route intravenous
Plasmodium berghei [31] = test: Antimalarial activity against GFP-transfected Plasmodium berghei ANKA infected in NMRI mouse assessed as mean survival time at 30 mg/kg, po administered as single dose; assay type: functional
Plasmodium berghei [32] = test: Antimalarial activity against GFP-transfected Plasmodium berghei ANKA infected in NMRI mouse assessed as reduction in parasitemia at 50 mg/kg, po administered as quadruple dose regimen after 4 days by flow cytometry; assay type: functional; set-up: scale not given: the % may be the effect or the level left
[33] = Plasma protein binding in rat at 200 ng/mL; assay type: ADME, cell-free; details: read-out: PPB (converted)
[34] = Plasma protein binding in human at 200 ng/mL; assay type: ADME, cell-free; details: read-out: PPB (converted)
Plasmodium falciparum [35] = test: microbe, parasite or virus in culture; details: K1
Plasmodium berghei [36] = test: Antimalarial activity against GFP-transfected Plasmodium berghei ANKA infected in NMRI mouse assessed as reduction in parasitemia at 100 mg/kg, po administered as single dose after 72 hrs by flow cytometry; assay type: functional; set-up: scale not given: the % may be the effect or the level left

Cytochrome P450 2C9, sequence (P11712 whole entry): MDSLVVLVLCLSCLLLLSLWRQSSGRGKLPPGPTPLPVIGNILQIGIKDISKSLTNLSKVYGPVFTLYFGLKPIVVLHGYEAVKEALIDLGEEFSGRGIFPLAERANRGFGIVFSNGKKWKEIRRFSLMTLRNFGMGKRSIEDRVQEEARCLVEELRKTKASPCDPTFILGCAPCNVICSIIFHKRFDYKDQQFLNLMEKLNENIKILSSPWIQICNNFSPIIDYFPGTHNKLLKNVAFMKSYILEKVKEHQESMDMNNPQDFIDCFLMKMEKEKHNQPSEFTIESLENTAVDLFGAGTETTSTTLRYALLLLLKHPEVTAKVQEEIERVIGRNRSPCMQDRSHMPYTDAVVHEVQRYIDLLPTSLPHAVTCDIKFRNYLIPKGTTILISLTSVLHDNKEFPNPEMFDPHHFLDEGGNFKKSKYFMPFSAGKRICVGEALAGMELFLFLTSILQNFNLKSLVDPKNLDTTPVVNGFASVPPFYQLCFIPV
Cytochrome P450 2C19, sequence (P33261 whole entry): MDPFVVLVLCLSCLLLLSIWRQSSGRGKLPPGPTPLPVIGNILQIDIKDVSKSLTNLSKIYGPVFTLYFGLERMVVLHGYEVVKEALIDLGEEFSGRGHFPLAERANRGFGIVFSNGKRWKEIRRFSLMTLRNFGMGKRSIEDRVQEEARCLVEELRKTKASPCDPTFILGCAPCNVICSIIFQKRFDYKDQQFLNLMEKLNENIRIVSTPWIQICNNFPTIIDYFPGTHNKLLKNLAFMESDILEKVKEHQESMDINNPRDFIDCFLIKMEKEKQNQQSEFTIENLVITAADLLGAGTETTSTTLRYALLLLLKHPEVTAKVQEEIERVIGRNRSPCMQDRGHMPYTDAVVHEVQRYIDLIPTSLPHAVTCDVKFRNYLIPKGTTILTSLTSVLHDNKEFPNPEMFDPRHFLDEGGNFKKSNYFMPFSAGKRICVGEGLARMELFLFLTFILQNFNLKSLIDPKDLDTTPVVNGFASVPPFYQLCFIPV
Cytochrome P450 2D6, sequence (P10635 whole entry): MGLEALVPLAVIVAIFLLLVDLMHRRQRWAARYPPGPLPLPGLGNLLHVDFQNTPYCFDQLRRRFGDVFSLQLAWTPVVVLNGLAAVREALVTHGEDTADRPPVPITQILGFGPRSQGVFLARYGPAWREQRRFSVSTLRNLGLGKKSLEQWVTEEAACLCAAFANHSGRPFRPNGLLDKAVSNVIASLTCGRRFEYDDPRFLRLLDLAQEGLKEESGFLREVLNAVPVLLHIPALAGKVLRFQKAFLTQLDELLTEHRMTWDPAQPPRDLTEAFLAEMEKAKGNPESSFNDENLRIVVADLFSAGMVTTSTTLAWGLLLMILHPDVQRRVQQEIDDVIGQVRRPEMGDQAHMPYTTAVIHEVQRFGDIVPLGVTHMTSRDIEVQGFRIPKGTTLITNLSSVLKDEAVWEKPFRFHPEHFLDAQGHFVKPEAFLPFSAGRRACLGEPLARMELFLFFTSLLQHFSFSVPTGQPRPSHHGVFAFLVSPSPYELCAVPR
Voltage-gated inwardly rectifying potassium channel KCNH2, sequence (Q12809 whole entry): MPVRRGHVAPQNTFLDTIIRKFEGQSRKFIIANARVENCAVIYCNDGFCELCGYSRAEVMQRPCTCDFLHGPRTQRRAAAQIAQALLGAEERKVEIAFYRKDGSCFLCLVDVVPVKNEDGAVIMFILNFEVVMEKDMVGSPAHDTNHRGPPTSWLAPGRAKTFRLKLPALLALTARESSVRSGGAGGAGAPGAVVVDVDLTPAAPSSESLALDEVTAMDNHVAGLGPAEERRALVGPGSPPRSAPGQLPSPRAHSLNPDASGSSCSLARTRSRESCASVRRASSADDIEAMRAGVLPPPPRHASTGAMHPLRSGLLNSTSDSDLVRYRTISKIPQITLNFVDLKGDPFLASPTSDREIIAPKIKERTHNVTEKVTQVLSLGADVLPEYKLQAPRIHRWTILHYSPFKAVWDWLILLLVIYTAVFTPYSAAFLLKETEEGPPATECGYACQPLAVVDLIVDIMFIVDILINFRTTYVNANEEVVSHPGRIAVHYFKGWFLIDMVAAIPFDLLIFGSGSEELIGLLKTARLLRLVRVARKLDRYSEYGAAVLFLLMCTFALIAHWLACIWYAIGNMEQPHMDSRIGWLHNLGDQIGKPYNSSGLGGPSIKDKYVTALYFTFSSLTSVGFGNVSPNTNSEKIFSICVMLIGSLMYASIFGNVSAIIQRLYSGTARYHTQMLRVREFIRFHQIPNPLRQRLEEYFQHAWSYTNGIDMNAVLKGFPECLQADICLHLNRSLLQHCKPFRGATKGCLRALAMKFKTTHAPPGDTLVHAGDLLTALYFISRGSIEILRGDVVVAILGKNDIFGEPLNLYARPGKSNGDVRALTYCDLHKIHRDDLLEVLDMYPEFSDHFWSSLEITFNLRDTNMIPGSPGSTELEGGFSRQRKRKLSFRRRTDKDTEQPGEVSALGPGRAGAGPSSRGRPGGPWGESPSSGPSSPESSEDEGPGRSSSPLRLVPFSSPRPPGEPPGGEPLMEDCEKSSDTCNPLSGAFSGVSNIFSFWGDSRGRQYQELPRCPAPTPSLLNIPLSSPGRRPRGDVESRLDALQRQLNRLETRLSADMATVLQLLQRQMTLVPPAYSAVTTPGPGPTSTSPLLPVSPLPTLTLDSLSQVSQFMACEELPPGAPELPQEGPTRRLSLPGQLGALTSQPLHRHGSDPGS

## CC(C)(C)c1cc(C(=O)Nc2nc(CN)cs2)n(Cc2ccccc2)n1
[1]
  Vd: 10.1 L/kg
[2]
  IC50: 3.7 µM
Plasmodium berghei [3]
  MSD: 9 days
CYP3A4/5 [4]
  IC50: > 30 µM
[5]
  clearance: 39.1 mL/min/kg
Plasmodium berghei [6]
  Activity: <40%
Cytochrome P450 1A2
  IC50: 1.5 µM
Liver microsomes [7]
  Stability: Stable
[8]
  solubility: 4930 µg/mL (≈ 13.3 mM)
Plasmodium berghei [9]
  Activity: <40%
[10]
  fraction unbound at 200 ng/mL: 0.021
[11]
  Tmax: 3.25 h
Plasmodium berghei [12]
  Activity: 99.4%
Liver microsomes [13]
  Stability: Stable
L6
  IC50: 4.9 µM
Plasmodium berghei [14]
  ED50: 37 mg/kg
  ED90: 86 mg/kg
Plasmodium falciparum [15]
  IC50: 0.07 µM
Plasmodium berghei [16]
  MSD: 8 days
[17]
  bioavailability: 50.4%
[18]
  AUC(0-inf): 11.8 µM·h
[19]
  Cmax: 1600 nM
[20]
  solubility: 142 µg/mL (≈ 0.385 mM)
Plasmodium berghei [21]
  MSD: 6 days
[22]
  half-life: 3.1 h
Liver
  Stability: Stable
[23]
  blood plasma ratio: 1.1
Cytochrome P450 2C19
  IC50: 15 µM
CYP3A4/5 [24]
  IC50: > 30 µM
Cytochrome P450 2C9
  IC50: 10 µM
Cytochrome P450 2D6
  IC50: 0.4 µM
[25]
  chromatographic logD: 2.4
Plasmodium berghei [26]
  MSD: 3 days
[27]
  chromatographic logD: 3.5
[28]
  half-life: 3.7 h
[29]
  clearance: 42.6 mL/min/kg
[30]
  AUC(0-inf): 4.82 µM·h
Plasmodium berghei [31]
  MSD: 6 days
Plasmodium berghei [32]
  Activity: 99.5%
[33]
  fraction unbound at 200 ng/mL: 0.029
[34]
  fraction unbound at 200 ng/mL: 0.06
Plasmodium falciparum [35]
  IC50: 0.08 µM
Plasmodium berghei [36]
  Activity: 94%
